Read-outs that look alike come from different tables or passages of the source. *1 amine or outer side, *2 acyl side, *3 side chain or, on linkers, in order; H or OH if unused. Where a SMILES comes first, the peptide text is derived from it. [ ]: non-standard residue; d: D form. X2 = C[C@@H]1C([C@@H](N[*:1])C(=O)[*:2])[C@H]1C; X1 = C[C@@H]1C([C@H](N[*:1])C(=O)[*:2])[C@H]1C; X3 = CC1C(C)C1C(N[*:1])C(=O)[*:2]; NMeL = CN[CH](CC(C)C)C(=O)O; NMeA = CN[CH](C)C(=O)O; dNMeA = CN[C@H](C)C(=O)O
Assays:
3T3-L1 murine adipocytes [1] = assay: 3T3-L1 fat accumulation (triglyceride) assay; type: cell-based; conditions: differentiated 3T3-L1 adipocytes, 7 days, read-out: Anti-obesity activity (fat accumulation) EC50
Protocol: (§1) MV-A, MV-B, MV-C and MV-D are evaluated for their anti-obesity effects in 3T3-L1 murine adipocytes. 3T3-L1 cells are cultured in the presence of insulin to induce adipocyte differentiation.
(§2) Pure compounds are evaluated against 3T3-L1 cell line for their potential anti-obesity activity. […] After the cells reach 100% confluence, the culture medium is changed to a differentiation DMEM medium containing 10% FCS, […], 0.5 mM 3-isobutyl-1-methylxanthine (IBMX), 90 U/mL penicillin, […] and 10 μg/mL insulin for induction of the adipocyte form of the 3T3-L1 cells. After 2 days, the differentiation medium is changed back to the normal DMEM medium and refreshed with the normal medium every 2 days. After incubation of additional 7 days, the cells are seeded in two sets of 96-well plates (about 10,000 cells per well). The test compounds in different concentrations are then added to the wells with 0.5% aqueous DMSO as control group. After incubation of 7 days, the differentiated 3T3-L1 adipocytes are treated with 2% Triton-X 100 ([…]) for 30 min at room temperature followed by sonication for 1 min. Fat accumulation is determined by measuring the liberated triglyceride using a Wato Triglyceride E-test Kit with the absorbance at 630/690 nm. The fat-accumulation rate is calculated as a percentage of the DMSO control. […] The cell viability of the differentiated 3T3-L1 adipocytes in another 96-well plate is treated with a Wako Cell Counting Kit-8 Test and measured with the absorbance at 450 nm. The cell viability is calculated as a percentage of the control.

3T3-L1 murine adipocytes [2] = assay: 3T3-L1 adipocyte cell viability; type: cell-based; conditions: differentiated 3T3-L1 adipocytes
Protocol: as §1, §2

[3] = test system: panel of cancer cell lines comprising KB, HCT116, LNCaP, A549, MCF7, HL60, Hela and A375; conditions: for IC50: read-out: Cell killing activity, IC50 values range over the panel, range over panel of human cancer cell lines
[4] = test system: oral epidermoid (KB) carcinoma cell line; assay: Cytotoxicity assay (sulforhodamine B), KB; type: cell-based, human; conditions: KB cells; for IC50: 72 hours, read-out: Cytotoxic activity IC50, KB
Protocol: (§4) Pure compounds are evaluated against the human cancer cell lines comprising our cytotoxicity screening panel. Cytotoxicity assays involving oral epidermoid (KB), colon (HCT116), prostate (LNCaP), breast (MCF7), Hela (cervical), leukemia (HL-60) melanoma (A375) and lung (A549) carcinoma cell lines, are performed using sulforhodamine B according to established protocols (Zhang et al., Journal of Medicinal Chemistry 2006; 49: 693-708; and Jutiviboonsuk A et al., Phytochemistry 2005; 66: 2745-2751.). KB and A375 cells are maintained in DMEM (Dulbecco's modified Eagle medium) medium. LNCaP and HL60 cells are maintained in RPMI1640 medium with hormone-free 10% heat-activated FBS (fetal bovine serum) supplemented with 0.1 nM testosterone. MCF7 and Hela cells are maintained and assayed in MEME (Minimum Essential Medium Eagle) medium containing 10 mg/L of insulin. HCT116 cells are maintained in McCoy's 5A medium supplemented with 10% fetal bovine serum. A549 cells are maintained in RPMI-1640 medium supplemented with 10% FCS. Serial dilutions of the compounds are prepared using 10% aqueous DMSO as solvent. The 190 μL cell suspension (3×10^4 cells in 1 ml media) is incubated with 10 μL sample solutions, in triplicate, in 96-well tissue culture plate at 37° C. in a humidified atmosphere of 5% CO2 in air for 72 hours. 10 μL 10% aqueous DMSO is used as control group. Then the cells are fixed to plastic substratum by the addition of 100 μL cold 20% aqueous trichloroacetic acid and washing with water after incubation at 4° C. for 30 min. After staining cells with 100 μL of 0.4% sulforhodamine B in 1% aqueous AcOH for 30 min, unbound dye is removed by rinsing with 1% aqueous AcOH. The bound dye is solubilized with 200 μL 10 mM unbuffered Tris base, pH 10, and the optical density is measured at 515 nm using an ELISA plate reader. The average data are expressed as a percentage, relative to the control. The IC50 values, the dose that inhibit cell growth by 50%, are calculated using nonlinear regression analysis (percent survival versus concentration).

[5] = test system: lung (A549) carcinoma cell line; assay: cells; type: cell-based, human; conditions: for IC50: 72 hours, read-out: Cytotoxic activity IC50, A549; for IC90: read-out: Cytotoxic activity IC90, A549
Protocol: as §4

[6] = test system: breast (MCF7) carcinoma cell line; assay: cells; type: cell-based, human; conditions: for IC50: 72 hours, read-out: Cytotoxic activity IC50, MCF7; for IC90: read-out: Cytotoxic activity IC90, MCF7
Protocol: as §4

[7] = test system: colon (HCT116) carcinoma cell line; assay: Cytotoxicity assay (sulforhodamine B), HCT116; conditions: read-out: Cytotoxic activity IC50, HCT116; HCT116 cells, 72 hours
Protocol: as §4

[8] = test system: prostate (LNCaP) carcinoma cell line; assay: cells; type: cell-based, human; conditions: Homo sapiens, 72 hours, read-out: Cytotoxic activity IC50, LNCaP
Protocol: as §4

HCT116-tumor xenograft = assay: HCT116 xenograft mouse model; type: in vivo; conditions: for Inhibition of HCT116 tumor growth (excised tumor weights): every other day for 21 days
Protocol: The treatment started on the 6th day when the HCT116-tumor reached approximately 100 mm^3 (L×W×W). […] All mice died for the maytansine group after the initial two treatments at the dose of 0.1 mg/kg, indicating the highly toxicity of maytansine.

[9] = test system: lung cancer cell line (A549); assay: Hollow fiber in vivo test, A549; design: species or system mouse
Protocol: (§3) Hollow fiber tests are well known in the art for providing preliminary indications of therapeutic efficacy (Mi et al. J. Nat. Prod. 2002, 65: 842-850). In hollow fiber tests, human tumor cell lines currently employed in cell cultures are grown inside semipermeable hollow fibers to form heterogeneous solid tumor models. […] By evaluating the test compound's inhibition of tumor cell growth versus the toxic response in the host, a preliminary estimate of therapeutic efficacy is provided in a cost- and time effective manner.

[10] = test system: colon cancer cell line (HCT116); assay: Hollow fiber in vivo test, HCT116; design: species or system mouse
Protocol: as §3

[11] = test system: breast cancer cell line (MCF7); assay: Hollow fiber in vivo test, MCF7; design: species or system mouse
Protocol: as §3

[12] = test system: melanoma cancer cell line (A375); assay: Hollow fiber in vivo test, A375; design: species or system mouse
Protocol: as §3

[13] = test system: cervical cancer cell line (Hela); assay: Hollow fiber in vivo test, Hela; design: species or system mouse
Protocol: as §3

MCF7-tumor xenograft = assay: MCF7 xenograft mouse model; conditions: for Inhibition of MCF7 tumor growth (excised tumor weights): twice a week for 3 weeks
Protocol: The treatment started on the 12th day when the MCF7-tumor size reached approximately 100 mm^3 (L×W×H). Two doses of MV-A (1.0 and 2.0 mg/kg), paclitaxel (5 mg/kg), and vehicle were administered via i.p. (intraperitoneal), i.v. (intravenous), or oral respectively, to the tumor-bearing mice twice a week for 3 weeks ([…]).
Antitumor animal study. All animal studies were approved and performed according to Animal Care and Use Guidelines of the Animal Ethics Committee at Hong Kong Baptist University and performed following Animal Care and Use guidelines set by NIH (National Institute of Health, USA). BALB/c nude mice, SPF class, male or female, 5-6 weeks old, were purchased from Charles River Laboratories. Before the experiment, it is one week of acclimatization to SPF class laboratory conditions. MV-A is tested for its anticancer activity against HCT116 and MCF7 cancer cells using a number of nude mice (Balc/nu/nu, female) in comparison of paclitaxel and maytansine. HCT116 or MCF7 cancer cells are subcutaneously implanted with 5×10^6 cells in the rear flank of each mouse. Female mice receiving MCF-7 cells are implanted with an s.c. pellet of 17β-estradiol (0.72 mg/pellet) a few days prior to injection to induce tumors. […] The mice are divided into 5 groups for HCT116 cancer cells: one high dose (1.0 mg/kg: 10 mice) group of MV-A, one low dose (0.5 mg/kg: 10 mice) group of MV-A, one dose (5.0 mg/kg: 10 mice) of paclitaxel, one dose of maytansine (0.1 mg/kg) and one dose of vehicle (negative control: 10 mice). The mice are then divided into 4 groups for MCF7 cancer cells: one high dose (2.0 mg/kg: 10 mice) group of MV-A, one low dose (1.0 mg/kg: 10 mice) group of MV-A, one dose (5.0 mg/kg: 10 mice) of paclitaxel, and one dose of vehicle (negative control: 10 mice). Every other day administration via i.p. (intraperitoneal), i.v. (intravenous), or oral, respectively are scheduled for 21 days for the HCT116 groups. Twice a week injections administered via i.p. (intraperitoneal), i.v. (intravenous), or oral, respectively are scheduled for […] for the MCF7 groups. Weights of mice and tumor diameters are measured twice a week until the end of the experiment. The tumor size in mm^3 was calculated by the formula: tumor size=length×width×height (L×W×H).

[14] = Body weight of mice after drug treatment; conditions: 1 mg/kg and 2 mg/kg

Structure (SMILES): CC(C)C[C@H]1NC(=O)[C@@H](C)N(C)C(=O)[C@H](C)N(C)C(=O)[C@H](C2[C@@H](C)[C@@H]2C)NC(=O)[C@H](CC(C)CO)N(C)C(=O)[C@H](C)N(C)C(=O)[C@@H](C2[C@@H](C)[C@@H]2C)NC1=O (stereo partly drawn) [MV-B]
- EC50 (3T3-L1 murine adipocytes [1]): 2.6 nM
- IC50 (3T3-L1 murine adipocytes [2]): 83.7 nM
- IC50 [3]: 0.7 to 9.1 nM

Structure (SMILES): CC(C)C[C@H]1NC(=O)[C@@H](C)N(C)C(=O)[C@H](C)N(C)C(=O)[C@H](C2[C@@H](C)[C@@H]2C)NC(=O)[C@H](CC(C)C)N(C)C(=O)[C@H](C)N(C)C(=O)[C@@H](CC(C)C)NC1=O (stereo partly drawn) [MV-C] (HELM PEPTIDE1{[meA].[meL].[C[C@@H]1C([C@H](N[*:1])C(=O)[*:2])[C@H]1C].[meA].[C[C@H](C(=O)[*:2])N(C)[*:1]].[dL].[dL]}$PEPTIDE1,PEPTIDE1,1:R1-7:R2$$$V2.0)
- EC50 (3T3-L1 murine adipocytes [1]): 38.9 nM
- IC50 (3T3-L1 murine adipocytes [2]): 689 nM
- IC50 [3]: 12 to 60 nM

Structure (SMILES): CC(C)CC1NC(=O)C(C)N(C)C(=O)C(C)N(C)C(=O)C(C2C(C)C2C)NC(=O)C(CC(C)C)N(C)C(=O)C(C)N(C)C(=O)C(CC(C)C)NC1=O (stereo not drawn) [Compound 3] (cyclo([X3][NMeA][NMeA]LL[NMeA][NMeL]); configuration not given here)
- IC50 [4]: 12.5 nM
- IC50 [5]: 51.8 nM
- IC50 [6]: 26.6 nM
- Reduction in activity in comparison with 1 ([3]; compound with only one DMCPA residue versus 1): at least 100 times
- IC50 [7]: 43.5 nM

Structure (SMILES): CC[C@]1(O)C[C@@H]2CN(CCc3c([nH]c4ccccc34)[C@@](C(=O)OC)(c3cc4c(cc3OC)N(C)[C@H]3[C@@](O)(C(=O)OC)[C@H](OC(C)=O)[C@]5(CC)C=CCN6CC[C@]43[C@@H]65)C2)C1 [Vinblastine, reference compound]
- Cytotoxic activity IC90, KB [4]: 10.1 nM
- IC90 ([5]; Homo sapiens): > 40 nM
- IC90 ([6]; Homo sapiens): > 50 nM

Structure (SMILES): COc1cc2cc(c1Cl)N(C)C(=O)C[C@H](OC(=O)[C@H](C)N(C)C(C)=O)[C@]1(C)O[C@H]1[C@H](C)[C@@H]1C[C@@](O)(NC(=O)O1)[C@H](OC)/C=C/C=C(\C)C2 [Maytansine, reference compound]
- IC50 ([4]; Homo sapiens): 0.16 nM
- Cytotoxic activity IC90, KB [4]: ~5 nM
- IC50 [8]: 0.56 nM
- IC50 ([5]; Homo sapiens): 3.18 nM
- IC90 ([5]; Homo sapiens): > 40 nM
- IC50 ([6]; Homo sapiens): 0.69 nM
- IC90 ([6]; Homo sapiens): > 20 nM
- Mortality of tumor-bearing mice (HCT116-tumor xenograft; 0.1 mg/kg, after the first two treatments): All mice died

Structure (SMILES): CC(C)C[C@H]1NC(=O)[C@@H](C)N(C)C(=O)[C@H](C)N(C)C(=O)[C@H](C2[C@@H](C)[C@@H]2C)NC(=O)[C@H](CC(C)C)N(C)C(=O)[C@H](C)N(C)C(=O)[C@@H](C2[C@@H](C)[C@@H]2C)NC1=O (stereo partly drawn) [MV-A] (cyclo([NMeA][NMeL][X1][NMeA][dNMeA][dL][X2]))
- Inhibition (%) ([9]; A549-IP, 0.05 mg/kg): 18.2%
- Inhibition (%) ([9]; A549-IP, 0.1 mg/kg): 56.6%
- Inhibition (%) ([9]; A549-SC, 0.05 mg/kg): 0%
- Inhibition (%) ([9]; A549-SC, 0.1 mg/kg): 36.4%
- Inhibition (%) ([10]; HCT116-IP, 0.1 mg/kg): 33.1%
- Inhibition (%) ([10]; HCT116-IP, 0.2 mg/kg): 53.3%
- Inhibition (%) ([10]; HCT116-IP, 0.8 mg/kg): 65.0%
- Inhibition (%) ([10]; HCT116-SC, 0.1 mg/kg): 0%
- Inhibition (%) ([10]; HCT116-SC, 0.2 mg/kg): 15.1%
- Inhibition (%) ([10]; HCT116-SC, 0.8 mg/kg): 12.7%
- Inhibition (%) ([11]; MCF7-IP, 0.05 mg/kg): 65.9%
- Inhibition (%) ([11]; MCF7-IP, 0.1 mg/kg): 76.8%
- Inhibition (%) ([11]; MCF7-IP, 0.2 mg/kg): 68.3%
- Inhibition (%) ([11]; MCF7-IP, 0.4 mg/kg): 66.7%
- Inhibition (%) ([11]; MCF7-SC, 0.05 mg/kg): 0%
- Inhibition (%) ([11]; MCF7-SC, 0.1 mg/kg): 0%
- Inhibition (%) ([11]; MCF7-SC, 0.2 mg/kg): 13.9%
- Inhibition (%) ([11]; MCF7-SC, 0.4 mg/kg): 56.0%
- Inhibition (%) ([12]; A375-IP, 0.2 mg/kg): 35.3%
- Inhibition (%) ([12]; A375-IP, 0.4 mg/kg): 67.4%
- Inhibition (%) ([12]; A375-SC, 0.2 mg/kg): 17.2%
- Inhibition (%) ([12]; A375-SC, 0.4 mg/kg): 27.8%
- Inhibition (%) ([13]; Hela-IP, 0.2 mg/kg): 45.8%
- Inhibition (%) ([13]; Hela-IP, 0.4 mg/kg): 82.7%
- Inhibition (%) ([13]; Hela-SC, 0.2 mg/kg): 23.2%
- Inhibition (%) ([13]; Hela-SC, 0.4 mg/kg): 52.8%
- Inhibition of HCT116 tumor growth (excised tumor weights) (HCT116-tumor xenograft; 0.5 mg/kg (low dose)): 31.1%
- Inhibition of HCT116 tumor growth (excised tumor weights) (HCT116-tumor xenograft; 1.0 mg/kg (high dose)): 52.8%
- Weight loss of mice after the first two treatments (HCT116-tumor xenograft; HCT116 xenograft, 0.5 and 1.0 mg/kg groups): 1 to 2 g
- Inhibition of MCF7 tumor growth (excised tumor weights) (MCF7-tumor xenograft; 1.0 mg/kg (low dose)): 48.1%
- Inhibition of MCF7 tumor growth (excised tumor weights) (MCF7-tumor xenograft; 2.0 mg/kg (high dose)): 72.6%
- Weight loss of mice after the first two treatments (MCF7-tumor xenograft; MCF7 xenograft, 1.0 and 2.0 mg/kg groups): 1 to 2 g
- EC50 (3T3-L1 murine adipocytes [1]): 0.3 nM
- IC50 (3T3-L1 murine adipocytes [2]): 12.9 nM
- IC50 [3]: 0.05 to 1.5 nM
- Mortality during the treatments [14]: No mice die
- Toxicity observed from dissection of the mice [14]: No sign of toxicity
- Drop of average weight of mice after the first two treatments ([14]; intravenous, intraperitoneal or oral): 1 to 2 g

From US9963485B2, “Cycloheptapeptide agents for treatment of cancer and obesity diseases” (Hong Kong Baptist University, priority 2012, dated 2018)
